Experimental data: paper PMC3664642, “A Peptide against Soluble Guanylyl Cyclase α1: A New Approach to Treating Prostate Cancer” (PLoS ONE, 2013)
Entries after “also recorded” stand apart in the source; their conditions may differ. Where no end group is shown, it is not given here.

Key:
[1] = system: CWR-22Rv1 cells; test: Proliferation/cytotoxicity, castration-resistant CWR-22Rv1 cells (MTT); assay type: cell-based; settings: different concentrations; Fig. 3C; averages of three independent experiments; P<0.03 vs Vehicle
Description: (§1) LNCaP, C81, PC-3 and Cos cells were grown as previously described. CWR-22Rv1 cells were cultured in RMPI-1640 medium with 10% FBS and 50 µg/ml Gentamicin (Gibco). Control siRNA, sGCα1 siRNA and AKT siRNA (Dharmacon) at 50 nM final concentration was transfected into cells using Lipofectamine siMAX (Invitrogen).
(§2) For proliferation, cells were grown in medium containing 2% FBS extracted with dextran-coated charcoal (DCC). 48 hours later, ethanol or 1 nM R1881 was added to the cells followed by peptide treatment. The MTT assay (Sigma) was used as before to determine cell number. For apoptosis, 5000 cells were seeded in 96-well plates and treated with Vehicle (DMSO), Peptide A-8R (25 µM), Etoposide (50 µM) (Sigma) at different time points. The Caspase (3/7) activity was measured using Apo-ONE Homogeneous Caspase-3/7 assay kit (Promega). PARP cleavage was also used to measure apoptosis, and is described below.
(§3) Vehicle or different concentrations of Peptide A-8R or C-8R, as shown, was added to (A) hormone-dependent LNCaP cells grown in 2% serum without or with 1 nM R1881, (C) castration-resistant C81 or CWR-22Rv1 cells, or (E) sGCα1-deficient PC-3 or Cos cells. Cell number was measured after various days of incubation. Data points represent averages of three independent experiments plus standard deviations. […]

[2] = system: Cos cells; test: Proliferation/cytotoxicity, sGCα1-deficient Cos cells (MTT); assay type: cell-based, African green monkey; settings: different concentrations, Fig. 3E
Description: as §1, §2, §3

[3] = system: sGCα1-sGCβ1; test: sGCα1-sGCβ1 co-immunoprecipitation, LNCaP extracts; assay type: binding; settings: LNCaP whole-cell extracts; Fig. S1A
Description: Immunoprecipitation (IP) in LNCaP cells was performed as described previously. Whole-cell extracts from LNCaP cells were subjected to IP using Protein A/G plus Agarose (Santa Cruz). IP antibodies were against sGCα1 (Cayman Chemical), sGCβ1 (Cayman Chemical), or rabbit IgG (Santa Cruz) as control. For Biotin pulldown, 5 µg Biotin-labeled Peptide A was incubated with NeutrAvidin Agarose Resin (Thermo Scientific) for 3 hours at 4°C, after which whole-cell extract from LNCaP cells was added and incubated overnight at 4°C. Resin was washed and eluted with SDS Sample buffer, followed by SDS-PAGE gel electrophoresis.
(A) Whole-cell extracts from LNCaP cells treated with Vehicle, Peptide A-8R, or C-8R were subjected to IP using an anti-sGCα1 or anti-sGCβ1 antibody and then probed by Western blotting for sGCα1 (Upper) or sGCβ1 (Lower). Input represents amount of sGCα1 or sGCβ1 found in extracts. (B) LNCaP cells grown in the absence or presence of 1 nM R1881 were treated with Vehicle, 20 µM Peptide A-8R, 20 µM C-8R, or 8-Br-cGMP and monitored for cGMP levels using the cGMP E1A kit (Enzo Life Sciences). (C) LNCaP cells grown in the absence or presence of 8-Br-cGMP were treated with Vehicle, Peptide A-8R, or ODQ and monitored for cell density using the MTT assay. (D) LNCaP cells were treated with Vehicle or different concentrations of Peptide A-8R and C-PTIO and monitored for cell density. […]

[4] = system: sGC; test: cGMP levels in LNCaP cells (ELISA); assay type: cell-based; settings: 1 nM R1881 absent or present, 20 µM peptide, cGMP EIA kit, Fig. S1B
Description: (A) Whole-cell extracts from LNCaP cells treated with Vehicle, Peptide A-8R, or C-8R were subjected to IP using an anti-sGCα1 or anti-sGCβ1 antibody and then probed by Western blotting for sGCα1 (Upper) or sGCβ1 (Lower). Input represents amount of sGCα1 or sGCβ1 found in extracts. (B) LNCaP cells grown in the absence or presence of 1 nM R1881 were treated with Vehicle, 20 µM Peptide A-8R, 20 µM C-8R, or 8-Br-cGMP and monitored for cGMP levels using the cGMP E1A kit (Enzo Life Sciences). (C) LNCaP cells grown in the absence or presence of 8-Br-cGMP were treated with Vehicle, Peptide A-8R, or ODQ and monitored for cell density using the MTT assay. (D) LNCaP cells were treated with Vehicle or different concentrations of Peptide A-8R and C-PTIO and monitored for cell density. Bar graphs represent averages of three independent experiments plus standard deviations. Asterisks indicate statistical significance (P<0.04). (TIF) Click here for additional data file.

[5] = system: Caspase 3/7 activity in PC-3 cells; test: Caspase 3/7 assay, PC-3 cells; assay type: cell-based; settings: 10 µM; 0–24 hrs; Fig. 5B
Description: as §2
(§4) Figure 5 Peptide A-8R induces apoptosis of prostate cancer cells. (A) LNCaP, (B) PC-3, or (C) Cos cells were treated with Vehicle, Peptide A-8R (10 µM), or Etoposide (20 µM) for 0–24 hrs and subjected to a Caspase assay to measure apoptosis. Bar graphs represent averages of three independent experiments plus standard deviations. All activities are relative to the first condition, and this activity was set to 1. Asterisks indicate statistical significance (P<0.005). (D) LNCaP cells were treated with Vehicle, Peptide C-8R, Peptide A-8R, or Etoposide (each drug at 50 µM) for 8 hrs and monitored for apoptosis by measuring PARP cleavage using Western blotting. Note that β-actin was used to control for protein loading.

[6] = system: Caspase 3/7 activity in Cos cells; test: Caspase 3/7 assay, Cos cells; assay type: cell-based, African green monkey; settings: 10 µM; 0–24 hrs; Fig. 5C
Description: as §2, §4

[7] = system: LNCaP xenograft tumors; test: LNCaP mouse xenograft tumor study; assay type: in vivo; settings: direct intratumoral injection; three animals per treatment; P<0.0005; Fig. S8
Description: […] When tumor sizes reached 200 mm^3, 50 µL of Peptide A-8R (40 mg Peptide A-8R/Kg of animal) or Vehicle (DMSO) was directly injected into the tumors every other day. Injections were stopped after 5 times and tumors were measured every 3 days. Mice were euthanized after 3 weeks and tumors were excised. All procedures were approved by the University of Toledo Division of Lab Animal Recourses (DLAR). Protein extracts were prepared by boiling the tumor tissue in 3× SDS buffer, and evaluated by SDS-PAGE gel.
Mouse xenograft tumors derived from LNCaP cells were treated with Vehicle or Peptide A-8R, after which they were allowed to grow for an additional three weeks without treatment. Data points represent average tumor size of three animals for each treatment plus standard deviations. Note that there is a statistical difference (P<0.0005) in average tumor size for each day of tumor measurement. Arrow represents day of last injection of Vehicle or Peptide A-8R. (TIF) Click here for additional data file.

[8] = system: C81 cells; test: DAPI DNA staining, C81 cells; assay type: cell-based; settings: 50 µM Peptide A-8R, 1 hr, with or without 5 mM NAC, Fig. S6
Description: C81 cells were first treated with or without 5 mM NAC for 2 hrs and then Vehicle or different concentrations of Peptide A-8R, as shown, for 1 hr and stained with DAPI. Phase contrast images are shown. (TIF) Click here for additional data file.

With Ac-TFCKAFPFHIIRRRRRRRR [Peptide A-8R] the “suppression of growth of CWR-22Rv1 cells” value [1] was “also effective on another hormone-refractory prostate cancer cell line, CWR-22Rv1 cells”, the “effect on Cos cells” value [2] was “little to no effect” and the “effect on sGCα1-sGCβ1 co-IP (heterodimerization)” value [3] was “had no effect on either sGCα1 co-IP with sGCβ1 or sGCβ1 co-IP with sGCα1; also recorded: does not interfere with sGCα1-sGCβ1 dimerization”. The cGMP levels [4] was “unable to significantly repress cGMP levels, in either the absence or presence of androgen; also recorded: does not interfere with sGCα1-sGCβ1 dimerization and androgen-induced cGMP synthesis”, the “induction of apoptosis, PC-3” value [5] was “failed to induce apoptosis” and the “induction of apoptosis, Cos” value [6] was “failed to induce apoptosis”. For the same substance, the “anti-tumor activity, LNCaP xenograft” value [7] was “able to stop tumor growth; also recorded: strong anti-tumor activity; also recorded: blocks the growth of LNCaP prostate tumors” and the “DAPI staining / effect on nuclei and DNA” value [8] was “kills the cells and disrupts their nuclei and DNA such that DAPI staining yields no signal”.
